Measured values as given in the supplement of paper PMC13380429.

What was measured:
[1] = system: Vero E6; assay: relative viability EC50 (midpoint between 100% and the lowest measured viability); higher = less toxic; settings: 72 h
[2] = system: Calu-3; assay: as above; settings: 72 h
[3] = system: U2OS; assay: as above; settings: 72 h
[4] = system: Caco-2; assay: as above; settings: 72 h
[5] = system: A549-ACE2 infected with SARS-CoV-2; assay: cell count relative to DMSO; higher = less toxic; settings: 24 h
[6] = system: A549-ACE2; assay: phospholipidosis EC50; higher = less potent phospholipidosis inducer
[7] = system: A549-ACE2 infected with SARS-CoV-2; assay: SARS-CoV-2 infection rate relative to DMSO; higher = more infection; settings: 24 h
[8] = system: A549-ACE2 infected with SARS-CoV-2; assay: morphology score (similarity to uninfected cells); higher = more like uninfected cells; settings: 24 h
[9] = system: Vero E6; assay: cell viability relative to DMSO; higher = less toxic; settings: 72 h
[10] = system: HepG2; assay: as above; settings: 72 h
[11] = system: Calu-3; assay: as above; settings: 72 h
[12] = system: U2OS; assay: as above; settings: 72 h
[13] = system: Caco-2; assay: as above; settings: 72 h
[14] = system: Vero E6; assay: drug sensitivity score (DSS) for viability; higher = more toxic; extreme values may be limits of the assay; settings: 72 h
[15] = system: HepG2; assay: as above; settings: 72 h
[16] = system: Calu-3; assay: as above; settings: 72 h
[17] = system: U2OS; assay: as above; settings: 72 h
[18] = system: Caco-2; assay: as above; settings: 72 h
[19] = system: A549-ACE2; assay: drug-induced phospholipidosis relative to tamoxifen; higher = more phospholipidosis
[20] = system: HepG2; assay: relative viability EC50 (midpoint between 100% and the lowest measured viability); higher = less toxic; settings: 72 h

c1ccc(-c2nn3c(c2-c2ccnc4cc(OCCN5CCOCC5)ccc24)CCC3)nc1
Settings | drug sensitivity score | relative viability EC50 [µM]
[1] | – | > 10
[2] | – | > 10
[3] | – | > 10
[4] | – | > 10
[14] | 0 | –
[15] | 1.6 | –
[16] | 0 | –
[17] | 1.5 | –
[18] | 0 | –

Settings | SARS-CoV-2 infection rate [%] | cell count [%] | cell viability [%] | morphology score | phospholipidosis EC50 [µM]
[5], 0.3 µM | – | 108 | – | – | –
[5], 3 µM | – | 104 | – | – | –
[5], 10 µM | – | 96 | – | – | –
[5], 30 µM | – | 95 | – | – | –
[6], 24 h | – | – | – | – | 15.2
[6], 72 h | – | – | – | – | 12.7
[7], 0.3 µM | 82 | – | – | – | –
[7], 3 µM | 97 | – | – | – | –
[7], 10 µM | 108 | – | – | – | –
[7], 30 µM | 106 | – | – | – | –
[8], 0.3 µM | – | – | – | 0.43 | –
[8], 3 µM | – | – | – | 0.25 | –
[8], 10 µM | – | – | – | 0.09 | –
[8], 30 µM | – | – | – | -0.11 | –
[9], 1 nM | – | – | 102 | – | –
[9], 10 nM | – | – | 99.8 | – | –
[9], 100 nM | – | – | 111 | – | –
[9], 1000 nM | – | – | 108 | – | –
[9], 10000 nM | – | – | 105 | – | –
[10], 1 nM | – | – | 103 | – | –
[10], 10 nM | – | – | 100 | – | –
[10], 100 nM | – | – | 96.6 | – | –
[10], 1000 nM | – | – | 95.7 | – | –
[10], 10000 nM | – | – | 74.7 | – | –
[11], 1 nM | – | – | 102 | – | –
[11], 10 nM | – | – | 86.3 | – | –
[11], 100 nM | – | – | 104 | – | –
[11], 1000 nM | – | – | 96 | – | –
[11], 10000 nM | – | – | 101 | – | –
[12], 1 nM | – | – | 95.4 | – | –
[12], 10 nM | – | – | 105 | – | –
[12], 100 nM | – | – | 91.6 | – | –
[12], 1000 nM | – | – | 90.4 | – | –
[12], 10000 nM | – | – | 76.5 | – | –
[13], 1 nM | – | – | 94.1 | – | –
[13], 10 nM | – | – | 106 | – | –
[13], 100 nM | – | – | 95.8 | – | –
[13], 1000 nM | – | – | 100 | – | –
[13], 10000 nM | – | – | 94.6 | – | –

drug-induced phospholipidosis [%], [19]
Settings | 0.3 µM | 0.833333 µM | 3.33333 µM | 6.66667 µM | 10 µM | 30 µM
24 h | 7.41 | 15.4 | 31.7 | 44.4 | 57.5 | 78.6
48 h | 5.26 | 4.41 | 16.2 | 19.5 | 30.1 | 52.8
72 h | 2.76 | -1.59 | 7.52 | 15.3 | 29.5 | 58.6

CCCOC(C(=O)OC1CCN(C)CC1)(c1ccccc1)c1ccccc1 [propiverine]
Settings | drug sensitivity score | relative viability EC50 [µM]
[1] | – | > 10
[2] | – | > 10
[3] | – | > 10
[4] | – | > 10
[14] | 0 | –
[15] | 0.4 | –
[16] | 0.4 | –
[17] | 0 | –
[18] | 0 | –
[20] | – | > 10

Settings | SARS-CoV-2 infection rate [%] | cell count [%] | cell viability [%] | morphology score | phospholipidosis EC50 [µM]
[5], 0.3 µM | – | 101 | – | – | –
[5], 3 µM | – | 119 | – | – | –
[5], 10 µM | – | 120 | – | – | –
[5], 30 µM | – | 110 | – | – | –
[6], 24 h | – | – | – | – | 2.8
[6], 48 h | – | – | – | – | 4.22
[6], 72 h | – | – | – | – | 5.23
[7], 0.3 µM | 95 | – | – | – | –
[7], 3 µM | 51 | – | – | – | –
[7], 10 µM | 17 | – | – | – | –
[7], 30 µM | 11 | – | – | – | –
[8], 0.3 µM | – | – | – | 0.19 | –
[8], 3 µM | – | – | – | 0.77 | –
[8], 10 µM | – | – | – | 0.9 | –
[8], 30 µM | – | – | – | 0.74 | –
[9], 1 nM | – | – | 103 | – | –
[9], 10 nM | – | – | 95 | – | –
[9], 100 nM | – | – | 105 | – | –
[9], 1000 nM | – | – | 96.4 | – | –
[9], 10000 nM | – | – | 98.4 | – | –
[10], 1 nM | – | – | 106 | – | –
[10], 10 nM | – | – | 109 | – | –
[10], 100 nM | – | – | 104 | – | –
[10], 1000 nM | – | – | 117 | – | –
[10], 10000 nM | – | – | 78 | – | –
[11], 1 nM | – | – | 93.5 | – | –
[11], 10 nM | – | – | 95.1 | – | –
[11], 100 nM | – | – | 100 | – | –
[11], 1000 nM | – | – | 105 | – | –
[11], 10000 nM | – | – | 80.4 | – | –
[12], 1 nM | – | – | 107 | – | –
[12], 10 nM | – | – | 99 | – | –
[12], 100 nM | – | – | 99.5 | – | –
[12], 1000 nM | – | – | 97.8 | – | –
[12], 10000 nM | – | – | 96.8 | – | –
[13], 1 nM | – | – | 102 | – | –
[13], 10 nM | – | – | 102 | – | –
[13], 100 nM | – | – | 102 | – | –
[13], 1000 nM | – | – | 95.5 | – | –
[13], 10000 nM | – | – | 89.7 | – | –

drug-induced phospholipidosis [%], [19]
Settings | 0.3 µM | 0.833333 µM | 3.33333 µM | 6.66667 µM | 10 µM | 30 µM
24 h | 2.28 | 8.59 | 66.7 | 91.7 | 105 | 109
48 h | 4.59 | 4.15 | 46.3 | 84.9 | 98.8 | 115
72 h | 4.64 | 4.08 | 43.7 | 80.2 | 95.8 | 123

CN1CCCN(C(c2ccccc2)c2ccc(Cl)cc2)CC1 (configuration not stated) [homochlorcyclizine]
Settings | drug sensitivity score | relative viability EC50 [µM]
[1] | – | > 10
[2] | – | > 10
[3] | – | > 10
[4] | – | > 10
[14] | 0 | –
[15] | 0.4 | –
[16] | 0 | –
[17] | 0 | –
[18] | 0 | –
[20] | – | > 10

Settings | SARS-CoV-2 infection rate [%] | cell count [%] | cell viability [%] | morphology score | phospholipidosis EC50 [µM]
[5], 0.3 µM | – | 102 | – | – | –
[5], 3 µM | – | 117 | – | – | –
[5], 10 µM | – | 113 | – | – | –
[5], 30 µM | – | 95 | – | – | –
[6], 24 h | – | – | – | – | 6.4
[6], 48 h | – | – | – | – | 7.14
[6], 72 h | – | – | – | – | 10.5
[7], 0.3 µM | 97 | – | – | – | –
[7], 3 µM | 51 | – | – | – | –
[7], 10 µM | 20 | – | – | – | –
[7], 30 µM | 19 | – | – | – | –
[8], 0.3 µM | – | – | – | 0.01 | –
[8], 3 µM | – | – | – | 0.71 | –
[8], 10 µM | – | – | – | 0.84 | –
[8], 30 µM | – | – | – | 0.53 | –
[9], 1 nM | – | – | 97.9 | – | –
[9], 10 nM | – | – | 99.5 | – | –
[9], 100 nM | – | – | 95.2 | – | –
[9], 1000 nM | – | – | 96.4 | – | –
[9], 10000 nM | – | – | 102 | – | –
[10], 1 nM | – | – | 98.7 | – | –
[10], 10 nM | – | – | 103 | – | –
[10], 100 nM | – | – | 104 | – | –
[10], 1000 nM | – | – | 108 | – | –
[10], 10000 nM | – | – | 79.6 | – | –
[11], 1 nM | – | – | 96.8 | – | –
[11], 10 nM | – | – | 94.3 | – | –
[11], 100 nM | – | – | 100 | – | –
[11], 1000 nM | – | – | 102 | – | –
[11], 10000 nM | – | – | 99.3 | – | –
[12], 1 nM | – | – | 99.8 | – | –
[12], 10 nM | – | – | 95.7 | – | –
[12], 100 nM | – | – | 104 | – | –
[12], 1000 nM | – | – | 99.2 | – | –
[12], 10000 nM | – | – | 97.1 | – | –
[13], 1 nM | – | – | 97.5 | – | –
[13], 10 nM | – | – | 94.7 | – | –
[13], 100 nM | – | – | 90.5 | – | –
[13], 1000 nM | – | – | 99.6 | – | –
[13], 10000 nM | – | – | 101 | – | –

drug-induced phospholipidosis [%], [19]
Settings | 0.3 µM | 0.833333 µM | 3.33333 µM | 6.66667 µM | 10 µM | 30 µM
24 h | 1.65 | 3.27 | 20.6 | 54.6 | 81 | 102
48 h | 3.21 | 3.5 | 22.2 | 49.2 | 82.5 | 107
72 h | 7.01 | 3.95 | 24.7 | 47.4 | 80.1 | 134
